Assay results as given in patent publication US11879137B2, “Treatment of type 1 diabetes and autoimmune diseases or disorders” (THE CHILDREN'S MEDICAL CENTER CORPORATION, priority 2017, dated 2024).

Legend:
[1] = tested on: PD-L1 on CD34+ cells; test: Prostaglandin library screening and FACS of PD-L1 on human CD34+ cells; type: cell-based; details: for PD-L1 expression by FACS analysis: CD34+ cells, 10 μM pulsed at 24 and 48 hours
Excerpt: FIGS. 17A-17J show prostaglandins enhance PD-L1 expression on human CD34^+ cells. (FIG. 17A-17B) Results of screening of a prostaglandin small molecule library tested for the ability to upregulate PD-L1 (MFI) on CD34^+ cells obtained from T1D patients. The schematic of the experimental design is shown in (A). The 3-color coding shown in (FIG. 17B) represents lowest PD-L1 MFI values (blue), median PD-L1 MFI values (pink) and highest PD-L1 MFI values (red). (FIG. 17C-17D) Representative flow cytometric analysis and quantitative bar graph of PD-L1 expression on CD34^+ cells from T1D patients pre- and post-pharmacologic modulation with PGE2 as compared to CD34^+ cells obtained from healthy controls. (FIG. 17E) PD-L1 and CXCR4 expression (mRNA) fold change was quantified for CD34^+ cells pre- and post-modulation with PGE2. (FIG. 17F) Migration assay using CD34^+ cells pre- and post-modulation with PGE2. (FIG. 17G) Confocal imaging of CD34^+ cells pre- and post-modulation with PGE2, showing DAPI (in blue) and PD-L1 (in green) staining. 63× magnification. Scale bar, 50 (FIG. 17H) IDO-1 expression (mRNA) fold change was quantified for CD34^+ cells pre- and post-modulation with PGE2. (FIG. 17I-17J) Representative flow cytometric analysis (FIG. 17I) and quantitative bar graph (FIG. 17J) of PD-L1 expression on CD34^+ cells from T1D patients pre- and post-pharmacologic modulation with 4 small molecule PGE2 agonists. All data are expressed as mean±SEM. *P<0.05, **P<0.001. Abbreviations: MFI, mean fluorescence intensity.
Pharmacological modulation of human CD34+ cells. 1×105 of isolated human CD34+ HSPCs (purity 99%) were cultured in 200 μl of StemSpan SFEM II media (SEMCELL Technologies Inc., Cambridge, MA, USA), and each compound in the Prostaglandin Screening Library II (Cayman Chemicals, Ann Arbor, MI), was added individually at day 0 and at day 1 at a concentration of 10 μM as previously reported by the inventors and others (9, 21). In another assay, isolated CD34+ cells from freshly isolated human PBMCs or from cryopreserved PBMCs, and processed as described earlier, were cultured in the presence of a cocktail of cytokines containing: 10 μg/ml heparin (SEMCELL Technologies Inc., Cambridge, MA, USA), 10 ng/ml human SCF (Miltenyi Biotec, San Diego, CA), 20 ng/ml human TPO (Miltenyi Biotec, San Diego, CA), 10 ng/ml human FGF-1 (Miltenyi Biotec, San Diego, CA), 100 ng/ml IGFBP2 (R&D Systems, Inc., Minneapolis, MN), and 500 ng/ml Angptl3 (R&D Systems, Inc., Minneapolis, MN). PGE2 (PromoKine, PromoCell Gmbh, Germany) was added by pulsing the culture at 0, 24h, 72h and 6 days with 2 μl of diluted PGE2 (10 μM). Cells were cultured for 7 days at 37° C. in 5% CO2, and CD34+ cells were then subjected to FACS analysis and were run on a FACSCelesta™ (Becton Dickinson, Franklin Lakes, NJ). Data were analyzed using FlowJo software version 8.7.3 (Treestar, Ashland, OR). The different cytokines used here and their related concentration as well as the choice of the incubation timing was used as previously reported in the literature (22).
Prostaglandin library screening. PGE2 has been described as a small molecule known to enhance the homing and engraftment of HSPCs. It was therefore sought to screen all known types of prostaglandins using the Prostaglandin Screening Library II, which contains 64 small molecules. Each small molecule contained in the library was first screened for its capacity to upregulate PD-L1 in human CD34+ cells isolated from T1D patients (FIG. 17A-17B). CD34+ cells isolated from T1D patients were cultured in StemSpan SFEMII and pulsed with each PG (prostaglandin) small molecule contained in the aforementioned library at a concentration of 10 μM at 24 and 48h. Using FACS analysis, the MFI (mean fluorescence intensity) of PD-L1 expression was calculated following treatment with each small molecule used to modulate CD34+ cells as compared to untreated/unmodulated CD34+ cells (FIG. 17B). […]

[2] = tested on: PD-L1 on CD34+ cells; test: 7-day culture of CD34+ cells with PGE2 and hematopoietic cytokines (STFIA medium), PD-L1+CD34+ by FACS; type: cell-based, human; details: for increase in the percentage of PD-L1+CD34+ cells: 7 days, STFIA medium, PGE2 10 μM
Description: FIGS. 18A-18J show effects of human PGE2-modulated and cytokine-treated CD34^+ cells. […] (FIG. 18C) Effect of PGE2 pulsing on CD34^+ cells cultured for 0, 24 h, 72 h and 6 days on PD-L1 expression on CD34^+ cells. (FIG. 18D-18E) Bar graphs showing an increase in the number of PD-L1^+CD34^+ cells and fold increase in cell number after 7 days of culture with PGE2 supplemented with cytokines. (FIG. 18F-18G) Upregulation of PD-L1 expression following culture with PGE2 (shown as percentage) on CD34^+ cells was not altered by the freeze/thawing process. (FIG. 18H) PGE2-modulated CD34^+ cells abrogate the IFN-γ autoimmune response to insulin-associated 2 (I-A2) autoantigen in vitro, as measured via the quantification of IFN-γ-producing cells in an Elispot assay; […]. (FIG. 18I) PGE2-modulated CD34^+ cells and PGE2-modulated CD34^+ cells cultured for 7 days in STFIA media abrogate the IFN-γ autoimmune response towards insulin-associated 2 (I-A2) autoantigen in vitro, as measured via the quantification of IFN-γ-producing cells in an Elispot assay, even when added at low dose. (FIG. 18J) PGE2-modulated CD34^+ cells abrogate the anti-CD3/CD28-stimulated PBMC response in vitro as measured via the quantification of IFN-γ-producing cells in an Elispot assay. […] Abbreviations: SCF, stem cell factor; TPO, thrombopoietin; hFGF-1, human fibroblast growth factor 1; IGFBP2, insulin-like growth factor-binding protein 2; Angptl3, angiopoietin-like 3; PBMCs, peripheral blood mononuclear cells.
Pharmacological modulation of human CD34+ cells. […] Data were analyzed using FlowJo software version 8.7.3 (Treestar, Ashland, OR). […]
PGE2 highly augments PD-L1 expression in human HSPCs when supplemented with hematopoietic cytokine. […] PD-L1+ HSPCs were then quantified by FACS analysis at different time points post-culture. […]

In the case of `CCCCC(C)(C)[C@H](O)/C=C/[C@H]1[C@H](O)CC(=O)[C@@H]1C/C=C\CCCC(=O)O` [16,16-dimethyl PGE2], the “capacity to upregulate PD-L1 (MFI) in library screening” value ([1]; 10 μM, CD34+ cells from T1D patients) is reported as “strongest capacity” and the “PD-L1 expression by FACS analysis” value [1] is reported as “robust upregulation”.
In the case of `CCCCC[C@H](O)/C=C/[C@H]1[C@H](O)CC(=O)[C@@H]1C/C=C\CCCC(=O)O` [PGE2, prostaglandin E2], the “PD-L1 expression by FACS analysis” value [1] is reported as “slight increase”, the “increase in the percentage of PD-L1+CD34+ cells” value ([2]; HSPCs from T1D) is reported as about 5 fold and the “PD-L1 expression pre- and post-cryopreservation” value ([2]; fresh vs frozen HSPCs, 7 days STFIA media pulsed with PGE2) is reported as “Sustained and conserved”. The “increase in the percentage of PD-L1+CD34+ cells” value ([2]; healthy control patients) was about 2 fold.
